Laboratory results: patent US8822500B2, “Tyrosine kinase inhibitors” (Chembridge Corporation, priority 2008, dated 2014)
Values joined by “and” are separate entries in the source; they are usually repeats but may differ in a detail not shown here. Equal entries are not always repeated. Where two headings read alike, the source gives them in different places.

Tests used:
U937 lymphoma cells = assay: Cellular assay, 3 day cell viability (WST-1); type: cell-based; conditions: Homo sapiens, U-937, 72 h; 3 days, WST-1; read-out: GTx-U937 IC50
TrkA = TrkA (Homo sapiens (Human), UniProt P04629); assay: In vitro kinase activity assay (LANCE TR-FRET); type: biochemical;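 note: kinase reaction with poly-GT peptide substrate and ATP, phosphorylated product quantified by time-resolved FRET, eleven-point dose curves from 10^−11 to 10^−5 M in triplicate, DMSO as negative control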
TrkA, sequence (P04629 33-796): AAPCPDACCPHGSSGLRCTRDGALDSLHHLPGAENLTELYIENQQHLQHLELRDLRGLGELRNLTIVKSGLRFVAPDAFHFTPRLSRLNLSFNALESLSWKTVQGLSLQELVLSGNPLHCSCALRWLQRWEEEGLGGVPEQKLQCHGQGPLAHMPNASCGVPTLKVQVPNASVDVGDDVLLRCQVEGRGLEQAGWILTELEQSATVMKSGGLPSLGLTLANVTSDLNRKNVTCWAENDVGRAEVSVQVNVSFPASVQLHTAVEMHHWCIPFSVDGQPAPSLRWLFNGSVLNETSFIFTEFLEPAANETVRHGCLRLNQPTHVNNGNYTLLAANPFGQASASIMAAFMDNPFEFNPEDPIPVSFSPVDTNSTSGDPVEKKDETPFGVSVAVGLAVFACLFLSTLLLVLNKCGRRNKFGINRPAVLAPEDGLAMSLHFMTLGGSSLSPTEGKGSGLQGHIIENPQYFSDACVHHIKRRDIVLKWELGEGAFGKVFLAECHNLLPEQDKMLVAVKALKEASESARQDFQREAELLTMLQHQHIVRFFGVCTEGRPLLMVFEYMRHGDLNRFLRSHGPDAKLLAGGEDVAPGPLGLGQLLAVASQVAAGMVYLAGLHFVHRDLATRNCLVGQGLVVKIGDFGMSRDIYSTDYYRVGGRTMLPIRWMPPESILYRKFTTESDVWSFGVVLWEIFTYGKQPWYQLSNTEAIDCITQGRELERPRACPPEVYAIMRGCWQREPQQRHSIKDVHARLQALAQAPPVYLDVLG

ALK = ALK (Homo sapiens (Human), UniProt Q9UM73); assay: In vitro kinase activity assay (LANCE TR-FRET); type: biochemical;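 note: kinase reactions with ATP and a poly-GT peptide substrate, phosphorylated product read by time-resolved FRET, 11-point curve from 10^−11 to 10^−5 M, DMSO as negative control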
ALK, sequence (Q9UM73 19-1620): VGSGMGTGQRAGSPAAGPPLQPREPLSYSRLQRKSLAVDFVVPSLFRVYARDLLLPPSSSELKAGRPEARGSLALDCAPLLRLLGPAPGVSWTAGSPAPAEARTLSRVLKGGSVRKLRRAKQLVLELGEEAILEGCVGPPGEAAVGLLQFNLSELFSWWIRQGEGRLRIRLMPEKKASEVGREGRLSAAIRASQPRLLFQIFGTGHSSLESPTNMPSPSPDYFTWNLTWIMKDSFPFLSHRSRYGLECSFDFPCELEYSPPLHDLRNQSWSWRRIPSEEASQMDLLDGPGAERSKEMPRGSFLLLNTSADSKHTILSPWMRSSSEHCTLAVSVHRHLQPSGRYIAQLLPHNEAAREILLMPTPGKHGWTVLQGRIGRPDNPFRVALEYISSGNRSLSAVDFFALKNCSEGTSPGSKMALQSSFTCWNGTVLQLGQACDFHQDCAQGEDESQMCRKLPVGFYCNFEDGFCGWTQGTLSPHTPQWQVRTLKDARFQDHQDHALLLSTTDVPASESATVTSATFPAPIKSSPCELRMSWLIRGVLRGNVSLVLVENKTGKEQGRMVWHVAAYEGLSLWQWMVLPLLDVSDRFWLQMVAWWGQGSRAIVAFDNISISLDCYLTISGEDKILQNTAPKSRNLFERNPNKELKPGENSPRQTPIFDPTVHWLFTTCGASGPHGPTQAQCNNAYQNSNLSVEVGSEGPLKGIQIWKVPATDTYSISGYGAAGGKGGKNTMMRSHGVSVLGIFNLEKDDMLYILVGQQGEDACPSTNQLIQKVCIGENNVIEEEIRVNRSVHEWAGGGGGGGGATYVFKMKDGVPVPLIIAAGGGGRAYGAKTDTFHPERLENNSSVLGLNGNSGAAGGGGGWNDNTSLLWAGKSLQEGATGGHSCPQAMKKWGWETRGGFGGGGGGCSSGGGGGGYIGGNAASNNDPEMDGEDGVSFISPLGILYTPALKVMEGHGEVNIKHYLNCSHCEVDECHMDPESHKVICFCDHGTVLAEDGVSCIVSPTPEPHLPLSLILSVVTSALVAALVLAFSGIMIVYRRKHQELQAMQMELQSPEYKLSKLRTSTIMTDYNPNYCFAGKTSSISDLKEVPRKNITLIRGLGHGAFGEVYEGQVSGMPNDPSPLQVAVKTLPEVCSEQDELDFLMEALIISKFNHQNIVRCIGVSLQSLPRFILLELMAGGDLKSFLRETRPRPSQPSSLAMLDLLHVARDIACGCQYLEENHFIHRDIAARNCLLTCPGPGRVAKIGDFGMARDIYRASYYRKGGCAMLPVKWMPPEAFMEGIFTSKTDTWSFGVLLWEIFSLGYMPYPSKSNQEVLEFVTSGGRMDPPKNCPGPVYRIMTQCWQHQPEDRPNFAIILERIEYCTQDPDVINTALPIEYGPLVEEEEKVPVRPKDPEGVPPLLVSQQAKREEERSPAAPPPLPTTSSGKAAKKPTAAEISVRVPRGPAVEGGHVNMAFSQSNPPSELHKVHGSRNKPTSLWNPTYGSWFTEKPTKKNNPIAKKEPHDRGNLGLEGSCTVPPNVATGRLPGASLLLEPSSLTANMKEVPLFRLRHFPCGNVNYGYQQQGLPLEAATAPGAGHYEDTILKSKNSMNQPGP

SUDHL-1 lymphoma cells = assay: Cellular assay, 3 day cell viability (WST-1); type: cell-based; conditions: Homo sapiens, SU-DHL-1, 72 h; 3 days, WST-1; read-out: GTx-SUDHL-1 IC50
K299 lymphoma cells = assay: Cellular assay, 3 day cell viability (WST-1); type: cell-based; conditions: 72 h, 3 days, read-out: GTx-K299 IC50
in vitro [1] = conditions: rat, microsomes; for half-life at 0.5 μM: pH 7.4; for microsomal CLint at 0.5 μM: pH 7.4, Rat LM-P1 CL (ul/min/mg)
in vitro [2] = conditions: human, microsomes; for microsomal CLint at 0.5 μM: pH 7.4, Human LM-P1 CL (ul/min/mg); for half-life at 0.5 μM: pH 7.4, Human LM-P1 Half-life (min)
RET = RET (Homo sapiens (Human), UniProt P07949); assay: In vitro kinase activity assay (LANCE TR-FRET); type: biochemical; conditions: read-out: RET (nM) IC50
ROS = ROS (Homo sapiens (Human), UniProt P08922); assay: In vitro kinase activity assay (LANCE TR-FRET); type: biochemical; conditions: read-out: ROS (nM) IC50
ROS, sequence (P08922 28-2347): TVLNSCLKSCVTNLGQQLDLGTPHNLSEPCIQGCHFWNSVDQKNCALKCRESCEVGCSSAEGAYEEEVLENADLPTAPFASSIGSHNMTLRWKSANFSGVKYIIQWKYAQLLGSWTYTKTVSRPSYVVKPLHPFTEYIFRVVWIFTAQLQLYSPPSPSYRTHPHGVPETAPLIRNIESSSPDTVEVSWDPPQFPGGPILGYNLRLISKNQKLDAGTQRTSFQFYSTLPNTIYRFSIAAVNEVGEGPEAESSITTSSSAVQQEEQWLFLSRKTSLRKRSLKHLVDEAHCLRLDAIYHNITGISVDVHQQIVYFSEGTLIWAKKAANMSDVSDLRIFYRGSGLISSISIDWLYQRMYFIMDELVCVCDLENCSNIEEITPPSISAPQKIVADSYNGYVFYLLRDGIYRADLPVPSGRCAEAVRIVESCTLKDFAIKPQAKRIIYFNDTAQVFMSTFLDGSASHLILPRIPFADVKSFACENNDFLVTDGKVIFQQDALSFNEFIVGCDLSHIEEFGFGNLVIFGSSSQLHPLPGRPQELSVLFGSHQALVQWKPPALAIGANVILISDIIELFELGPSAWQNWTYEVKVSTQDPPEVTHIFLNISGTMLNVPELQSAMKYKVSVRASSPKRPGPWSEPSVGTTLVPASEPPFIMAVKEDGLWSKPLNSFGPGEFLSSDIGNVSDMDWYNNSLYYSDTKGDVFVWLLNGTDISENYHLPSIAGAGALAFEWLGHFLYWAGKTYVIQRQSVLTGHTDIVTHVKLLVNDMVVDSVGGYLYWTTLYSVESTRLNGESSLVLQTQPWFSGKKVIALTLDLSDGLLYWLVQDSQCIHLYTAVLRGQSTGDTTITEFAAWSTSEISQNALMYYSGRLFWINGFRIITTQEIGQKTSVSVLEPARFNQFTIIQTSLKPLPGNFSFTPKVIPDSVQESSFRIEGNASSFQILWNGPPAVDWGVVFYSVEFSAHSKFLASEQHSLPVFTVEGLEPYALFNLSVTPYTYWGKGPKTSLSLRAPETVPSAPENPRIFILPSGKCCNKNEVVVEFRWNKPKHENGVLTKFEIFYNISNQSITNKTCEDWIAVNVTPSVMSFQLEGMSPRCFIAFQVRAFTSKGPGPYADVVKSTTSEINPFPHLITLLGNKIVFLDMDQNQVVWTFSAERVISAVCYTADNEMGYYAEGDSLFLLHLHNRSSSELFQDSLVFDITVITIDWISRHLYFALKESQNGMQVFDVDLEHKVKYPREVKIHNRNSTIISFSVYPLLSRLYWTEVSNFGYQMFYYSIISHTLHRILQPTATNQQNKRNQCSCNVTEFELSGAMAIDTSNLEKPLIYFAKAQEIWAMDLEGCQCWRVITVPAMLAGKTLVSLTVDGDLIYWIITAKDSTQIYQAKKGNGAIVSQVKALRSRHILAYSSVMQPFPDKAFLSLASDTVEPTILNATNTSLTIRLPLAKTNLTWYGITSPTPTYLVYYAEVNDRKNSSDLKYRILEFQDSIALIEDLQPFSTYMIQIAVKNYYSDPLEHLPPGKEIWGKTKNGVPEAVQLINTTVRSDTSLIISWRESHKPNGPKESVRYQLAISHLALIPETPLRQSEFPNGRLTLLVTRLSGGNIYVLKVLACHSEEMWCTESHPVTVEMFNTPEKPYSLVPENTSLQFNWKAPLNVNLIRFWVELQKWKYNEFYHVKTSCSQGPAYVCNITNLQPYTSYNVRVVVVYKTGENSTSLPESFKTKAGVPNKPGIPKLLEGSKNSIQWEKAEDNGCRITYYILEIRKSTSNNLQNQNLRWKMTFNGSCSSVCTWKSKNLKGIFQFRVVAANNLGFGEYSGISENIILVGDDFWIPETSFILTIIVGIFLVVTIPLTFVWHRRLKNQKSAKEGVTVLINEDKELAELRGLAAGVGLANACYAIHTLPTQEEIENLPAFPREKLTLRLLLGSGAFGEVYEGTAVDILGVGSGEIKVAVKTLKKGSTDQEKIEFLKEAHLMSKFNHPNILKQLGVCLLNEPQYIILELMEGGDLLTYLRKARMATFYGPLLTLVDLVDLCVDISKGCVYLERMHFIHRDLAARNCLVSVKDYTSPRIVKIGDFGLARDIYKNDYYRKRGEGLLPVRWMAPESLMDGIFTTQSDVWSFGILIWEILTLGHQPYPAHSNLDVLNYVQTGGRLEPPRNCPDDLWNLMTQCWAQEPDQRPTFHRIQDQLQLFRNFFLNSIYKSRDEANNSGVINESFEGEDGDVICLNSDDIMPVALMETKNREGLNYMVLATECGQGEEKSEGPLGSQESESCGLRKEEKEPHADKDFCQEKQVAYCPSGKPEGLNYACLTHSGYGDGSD

[3] = Metabolic stability, Phase I microsome reactions; type: in vitro ADME, mouse; conditions: mouse, liver microsomes, pH 7.4, Phase I only, 1.0 mg/ml microsomes
Caco-2 cells = assay: Caco-2 cell permeation study; type: in vitro ADME; conditions: 10 μM; for Papp (10−6 cm/sec) B to A: basolateral pH 7.4, 2 h;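 for all read-outs here: Caco-2 monolayers grown for 21–28 days with integrity confirmed by TEER, apical buffer HBSS with MES, basolateral buffer HBSS with HEPES, compound levels quantified by LC/MS/MS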
[4] = Caco-2 cell permeation study; type: in vitro ADME; conditions: human;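 note: Caco-2 monolayers grown for 21–28 days with integrity confirmed by TEER, apical buffer HBSS with MES, basolateral buffer HBSS with HEPES, compound levels quantified by LC/MS/MS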

| Compound | IC50 (U937 lymphoma cells) | IC50 (TrkA; read-out: TrkA (nM) IC50) | IC50 (ALK; read-out: ALK (nM) IC50) | IC50 (SUDHL-1 lymphoma cells) | IC50 (K299 lymphoma cells) | half-life at 0.5 μM (in vitro [1]) | microsomal CLint at 0.5 μM (in vitro [1]) | microsomal CLint at 0.5 μM (in vitro [2]) | half-life at 0.5 μM (in vitro [2]) | also measured |
| --- | --- | --- | --- | --- | --- | --- | --- | --- | --- | --- |
| C[C@@H](Cc1cc(F)cc(F)c1F)Nc1cc[nH]c(=O)c1-c1nc2cc3c(cc2[nH]1)C(=O)N([C@@H](C)Cc1cc(F)cc(F)c1F)C3=O (stereo in doubt) [Compound 40, 2-(2-oxo-4-(1-(2,3,5-trifluorophenyl)propan-2-ylamino)-1,2-dihydropyridin-3-yl)-6-(1-(2,3,5-trifluorophenyl)propan-2-yl)imidazo[4,5-f]isoindole-5,7(1H,6H)-dione] | > 10000 nM | > 10000 nM | > 10000 nM | > 10000 nM | > 10000 nM | – | – | – | – | – |
| CC(Cc1cc(F)ccc1F)Nc1cc[nH]c(=O)c1-c1nc2cc3c(cc2[nH]1)C(=O)N(CCN(C)C)C3=O (stereo not shown) [Compound 17, 2-(4-(1-(2,5-Difluorophenyl)propan-2-ylamino)-2-oxo-1,2-dihydropyridin-3-yl)-6-(2-(dimethylamino)ethyl)imidazo[4,5-f]isoindole-5,7(1H,6H)-dione] | – | 17.5 nM | 38.9 nM | – | – | 0.426 h | 27.1 µL/min/mg | 8.77 µL/min/mg | 1.32 h | – |
| Cc1c2c(cc3[nH]c(-c4c(NC(C)Cc5c(F)c(F)cc(F)c5F)cc[nH]c4=O)nc13)CN(C1CCN(C)CC1)C2=O (stereo not shown) [Compound 24, 4-Methyl-6-(1-methylpiperidin-4-yl)-2-(2-oxo-4-(1-(2,3,5,6-tetrafluorophenyl)propan-2-ylamino)-1,2-dihydropyridin-3-yl)-6,7-dihydroimidazo[4,5-f]isoindol-5(1H)-one] | – | 10.4 nM | 23.7 nM | – | – | – | – | – | – | – |
| Cc1c2c(cc3[nH]c(-c4c(NC(C)Cc5c(F)c(F)cc(F)c5F)cc[nH]c4=O)nc13)C(=O)N(C1CCN(C)CC1)C2 (stereo not shown) [Compound 24A, 8-Methyl-6-(1-methylpiperidin-4-yl)-2-(2-oxo-4-(1-(2,3,5,6-tetrafluorophenyl)propan-2-ylamino)-1,2-dihydropyridin-3-yl)-6,7-dihydroimidazo[4,5-f]isoindol-5(3H)-one] | – | 5.99 nM | 14.6 nM | – | – | – | – | – | – | IC50 (RET): 11.1 nM; IC50 (ROS): 2.37 nM |
| Cc1c2c(cc3[nH]c(-c4c(NC(C)Cc5c(F)c(F)cc(F)c5F)cc[nH]c4=O)nc13)C(=O)N(C1CCN(C)CC1)C2=O (stereo not shown) [Compound 29, 4-Methyl-6-(1-methylpiperidin-4-yl)-2-(2-oxo-4-(1-(2,3,5,6-tetrafluorophenyl)propan-2-ylamino)-1,2-dihydropyridin-3-yl)imidazo[4,5-f]isoindole-5,7(1H,6H)-dione] | – | 165 nM | 231 nM | – | – | – | – | – | – | – |
| C[C@@H](Cc1cc(F)ccc1F)Nc1cc[nH]c(=O)c1-c1nc2cc3c(cc2[nH]1)C(=O)N(C)C3=O [Compound 32, 2-(4-(1-(2,5-Difluorophenyl)propan-2-ylamino)-2-oxo-1,2-dihydropyridin-3-yl)-6-methylimidazo[4,5-f]isoindole-5,7(1H,6H)-dione] | > 3000 nM | 30 to 100 nM | > 300 nM | 957 nM | 784 nM | > 2 h | < 5.8 µL/min/mg | 7.81 µL/min/mg | 1.48 h | IC50 (TrkA; read-out: GTx-TrKA IC50): > 30 nM; IC50 (ALK; read-out: GTx-ALK IC50): > 300 nM; microsomal CLint at 0.5 μM ([3]; read-out: Mouse LM-P1 CL): < 5.8 µL/min/mg; half-life at 0.5 μM ([3]; read-out: Mouse LM-P1 Half-life): > 2 h; Papp (10−6 cm/sec) A to B (Caco-2 cells; apical pH 6.5, 2 h): >0.2 10−6 cm/sec; Papp (10−6 cm/sec) B to A (Caco-2 cells): 0.1 10−6 cm/sec; Papp A→B at 2 h, 10 μM ([4]; Caco-2, pH 6.5, 10 μM, apical pH 6.5, 2 h): < 0.2 ×10⁻⁶ cm/s |
| CC(Cc1cc(F)ccc1F)Nc1cc[nH]c(=O)c1-c1nc2cc3c(cc2[nH]1)C(=O)N(CC(O)CO)C3=O [Compound 34, 2-(4-(1-(2,5-Difluorophenyl)propan-2-ylamino)-2-oxo-1,2-dihydropyridin-3-yl)-6-(R)-2,3-dihydroxypropyl)imidazo[4,5-f]isoindole-5,7(1H,6H)-dione] | > 10000 nM | 6.97 nM and 3.7 nM | 13.8 nM and 4.71 nM | > 10000 nM | > 10000 nM | 0.561 h | 20.6 µL/min/mg | 9.16 µL/min/mg | 1.26 h | IC50 (TrkA; read-out: GTx-TrKA IC50): 7 nM; IC50 (ALK; read-out: GTx-ALK IC50): 14 nM; Papp (10−6 cm/sec) B to A (Caco-2 cells): 1.17 10−6 cm/sec; efflux ratio at 2 h, 10 μM ([4]; Caco-2, Caco-2): > 5.9; Papp B→A at 2 h, 10 μM ([4]; Caco-2, pH 7.4, 10 μM, basolateral pH 7.4, 2 h): 1.17 ×10⁻⁶ cm/s |
| CC(Cc1cc(F)ccc1F)Nc1cc[nH]c(=O)c1-c1nc2cc3c(cc2[nH]1)C(=O)N(C(C)C)C3=O (stereo not shown) [Compound 36, 2-(4-((1-(2,5-Difluorophenyl)propan-2-yl)amino)-2-oxo-1,2-dihydropyridin-3-yl)-6-isopropylimidazo[4,5-f]isoindole-5,7(1H,6H)-dione] | > 3000 nM | – | – | 2770 nM | 1830 nM | – | – | – | – | – |
